Results: paper PMC5218480 (PLoS ONE, 2017)

Tested on: MV-4-11 cells
Test: Gene expression microarray analysis (Affymetrix PrimeView) and GSEA
Format: cell-based, human
Design: RFU PODN (11730768_x_at) / Fold change /veh PODN (11730768_x_at) / RFU LINC00158 (11744669_a_at) / Fold change /veh LINC00158 (11744669_a_at) / RFU DUSP10 (11751237_a_at) / Fold change /veh DUSP10 (11751237_a_at) / RFU ID3 (11757404_x_at) / Fold change /veh ID3 (11757404_x_at) / RFU PLEKHG5 (11737974_s_at) / Fold change /veh PLEKHG5 (11737974_s_at) / RFU LRRC4B (11730491_at) / Fold change /veh LRRC4B (11730491_at) / RFU GIMAP4 (11747438_a_at) / Fold change /veh GIMAP4 (11747438_a_at) / RFU KRT8 (11758183_x_at) / Fold change /veh KRT8 (11758183_x_at) / RFU CNN1 (11734310_a_at) / Fold change /veh CNN1 (11734310_a_at) / RFU VPS37D (11726825_at) / Fold change /veh VPS37D (11726825_at) / RFU C10orf10 (11716522_x_at) / Fold change /veh C10orf10 (11716522_x_at) / RFU KIR2DL2 /// KIR2DL4 /// KIR2DL5A /// KIR2DL5B /// KIR2DS1 /// KIR2DS2 /// KIR2DS3 /// KIR2DS4 /// KIR3DL3 /// KIR3DL3 /// KIR3DS1 (11738374_at) / Fold change /veh KIR2DL2 /// KIR2DL4 /// KIR2DL5A /// KIR2DL5B /// KIR2DS1 /// KIR2DS2 /// KIR2DS3 /// KIR2DS4 /// KIR3DL3 /// KIR3DL3 /// KIR3DS1 (11738374_at) / RFU C1QL1 (11718748_at) / Fold change /veh C1QL1 (11718748_at) / RFU TMPRSS4 (11747572_a_at) / Fold change /veh TMPRSS4 (11747572_a_at) / RFU HAMP (11756126_x_at) / Fold change /veh HAMP (11756126_x_at) / RFU RNFT2 (11725882_a_at) / Fold change /veh RNFT2 (11725882_a_at) / RFU NR4A2 (11747474_a_at) / Fold change /veh NR4A2 (11747474_a_at) / RFU ABCC12 (11746883_a_at) / Fold change /veh ABCC12 (11746883_a_at) / RFU TMEM136 (11760407_x_at) / Fold change /veh TMEM136 (11760407_x_at) / RFU CLDN22 /// WWC2 (11732394_at) / Fold change /veh CLDN22 /// WWC2 (11732394_at) / RFU HLA-DPB1 (11760878_x_at) / Fold change /veh HLA-DPB1 (11760878_x_at) / RFU SPINT1 (11716480_a_at) / Fold change /veh SPINT1 (11716480_a_at) / RFU GAP43 (11754022_s_at) / Fold change /veh GAP43 (11754022_s_at) / RFU A4GNT (11735810_at) / Fold change /veh A4GNT (11735810_at) / RFU PRB3 (11715151_x_at) / Fold change /veh PRB3 (11715151_x_at) / RFU TUBB4B (11761932_at) / Fold change /veh TUBB4B (11761932_at) / RFU CAPN14 (11732068_a_at) / Fold change /veh CAPN14 (11732068_a_at) / RFU TMCC2 (11721928_a_at) / Fold change /veh TMCC2 (11721928_a_at) / RFU IRGQ (11745062_a_at) / Fold change /veh IRGQ (11745062_a_at) / RFU FAM174B (11720279_a_at) / Fold change /veh FAM174B (11720279_a_at) / RFU TMPRSS4 (11748680_a_at) / Fold change /veh TMPRSS4 (11748680_a_at) / RFU FAM212B (11763350_a_at) / Fold change /veh FAM212B (11763350_a_at) / RFU PLEKHG5 (11743358_a_at) / Fold change /veh PLEKHG5 (11743358_a_at) / RFU ZSCAN30 (11745921_a_at) / Fold change /veh ZSCAN30 (11745921_a_at) / RFU CMKLR1 (11741424_a_at) / Fold change /veh CMKLR1 (11741424_a_at) / RFU LOC101060620 /// MAPK8IP1 (11723275_at) / Fold change /veh LOC101060620 /// MAPK8IP1 (11723275_at) / RFU SPTSSB (11747773_x_at) / Fold change /veh SPTSSB (11747773_x_at) / RFU PRSS12 (11739890_at) / Fold change /veh PRSS12 (11739890_at) / RFU BIN1 (11741810_x_at) / Fold change /veh BIN1 (11741810_x_at) / RFU WNT11 (11732464_a_at) / Fold change /veh WNT11 (11732464_a_at) / RFU C10orf10 (11716521_a_at) / Fold change /veh C10orf10 (11716521_a_at) / RFU C5orf56 (11738089_at) / Fold change /veh C5orf56 (11738089_at) / RFU CYB561 (11721691_x_at) / Fold change /veh CYB561 (11721691_x_at) / RFU ANKRD19P (11752326_a_at) / Fold change /veh ANKRD19P (11752326_a_at) / RFU OR2T12 /// OR2T33 /// OR2T8 (11738714_s_at) / Fold change /veh OR2T12 /// OR2T33 /// OR2T8 (11738714_s_at) / RFU VCAN (11748164_a_at) / Fold change /veh VCAN (11748164_a_at) / RFU JSRP1 (11732532_at) / Fold change /veh JSRP1 (11732532_at) / RFU KRTAP10-11 (11738290_x_at) / Fold change /veh KRTAP10-11 (11738290_x_at) / RFU MYO3A (11730013_a_at) / Fold change /veh MYO3A (11730013_a_at) / RFU EBF3 (11725865_a_at) / Fold change /veh EBF3 (11725865_a_at) / RFU CAMK2N1 (11719241_x_at) / Fold change /veh CAMK2N1 (11719241_x_at) / RFU C5orf56 (11738088_a_at) / Fold change /veh C5orf56 (11738088_a_at) / RFU OLFML3 (11715873_a_at) / Fold change /veh OLFML3 (11715873_a_at) / RFU LOC100653217 /// NTM (11731650_a_at) / Fold change /veh LOC100653217 /// NTM (11731650_a_at) / RFU MAPK11 (11762145_a_at) / Fold change /veh MAPK11 (11762145_a_at) / RFU FIZ1 (11724087_x_at) / Fold change /veh FIZ1 (11724087_x_at) / RFU OASL (11726364_x_at) / Fold change /veh OASL (11726364_x_at) / RFU SOX15 (11748057_x_at) / Fold change /veh SOX15 (11748057_x_at) / RFU CD79A (11719716_a_at) / Fold change /veh CD79A (11719716_a_at) / RFU HIST1H1D (11736915_at) / Fold change /veh HIST1H1D (11736915_at) / RFU CASKIN2 (11723855_a_at) / Fold change /veh CASKIN2 (11723855_a_at) / RFU LOC730098 (11760151_x_at) / Fold change /veh LOC730098 (11760151_x_at) / RFU OR4N2 (11742367_at) / Fold change /veh OR4N2 (11742367_at) / RFU PRRT2 (11749266_a_at) / Fold change /veh PRRT2 (11749266_a_at) / RFU SNX32 (11753110_a_at) / Fold change /veh SNX32 (11753110_a_at) / RFU CDHR5 (11726645_a_at) / Fold change /veh CDHR5 (11726645_a_at) / RFU RCAN1 (11760418_a_at) / Fold change /veh RCAN1 (11760418_a_at) / RFU FAM167A (11723789_a_at) / Fold change /veh FAM167A (11723789_a_at) / RFU FAM26E (11764081_at) / Fold change /veh FAM26E (11764081_at) / RFU ISYNA1 (11749810_s_at) / Fold change /veh ISYNA1 (11749810_s_at) / RFU ACY1 (11761880_at) / Fold change /veh ACY1 (11761880_at) / RFU 11764098_at / Fold change /veh 11764098_at / RFU SAMD14 (11745864_x_at) / Fold change /veh SAMD14 (11745864_x_at) / RFU NPB (11741838_a_at) / Fold change /veh NPB (11741838_a_at) / RFU TMPRSS6 (11731388_a_at) / Fold change /veh TMPRSS6 (11731388_a_at) / RFU KRTAP10-2 (11738614_at) / Fold change /veh KRTAP10-2 (11738614_at) / RFU ARHGAP8 /// PRR5-ARHGAP8 (11727945_x_at) / Fold change /veh ARHGAP8 /// PRR5-ARHGAP8 (11727945_x_at) / RFU KRTAP5-7 /// NADSYN1 (11734609_at) / Fold change /veh KRTAP5-7 /// NADSYN1 (11734609_at) / RFU RASL12 (11751679_a_at) / Fold change /veh RASL12 (11751679_a_at) / RFU CDKN2B (11736163_a_at) / Fold change /veh CDKN2B (11736163_a_at) / RFU PRF1 (11729649_at) / Fold change /veh PRF1 (11729649_at) / RFU, ZNF638 /// ZNF638-IT1 / Fold change vs veh, ZNF638 /// ZNF638-IT1 / RFU, PANK3 / Fold change vs veh, PANK3 / RFU, SH3YL1 / Fold change vs veh, SH3YL1 / RFU, ZEB2 / Fold change vs veh, ZEB2 / RFU, NRIP1 / Fold change vs veh, NRIP1 / RFU, PTTG1IP / Fold change vs veh, PTTG1IP / RFU, CAPN2 / Fold change vs veh, CAPN2 / RFU, MED14 / Fold change vs veh, MED14 / RFU, SNORA58 / Fold change vs veh, SNORA58 / RFU, C1orf63 / Fold change vs veh, C1orf63 / RFU, LRRFIP1 / Fold change vs veh, LRRFIP1 / RFU, NDUFAF7 / Fold change vs veh, NDUFAF7 / RFU, SLC12A2 / Fold change vs veh, SLC12A2 / RFU, IBTK / Fold change vs veh, IBTK / RFU, ESF1 / Fold change vs veh, ESF1 / Fold change vs veh, TMEM50B / RFU, TAOK1 / Fold change vs veh, TAOK1 / RFU, ACBD3 / Fold change vs veh, ACBD3 / RFU, TMA16 / Fold change vs veh, TMA16 / RFU, RWDD3 / Fold change vs veh, RWDD3 / RFU, BCAT1 / Fold change vs veh, BCAT1 / RFU, EDEM3 / Fold change vs veh, EDEM3 / RFU, TMEM33 / Fold change vs veh, TMEM33 / RFU, WDR75 / Fold change vs veh, WDR75 / RFU, AHCTF1 / Fold change vs veh, AHCTF1 / RFU, TFRC / Fold change vs veh, TFRC / RFU, ZDHHC17 / Fold change vs veh, ZDHHC17 / RFU, NOM1 / Fold change vs veh, NOM1 / RFU, ARL8B / Fold change vs veh, ARL8B / RFU, ZBTB11 / Fold change vs veh, ZBTB11 / RFU, TAMM41 / Fold change vs veh, TAMM41 / RFU, KIAA1704 /// LOC100996395 / Fold change vs veh, KIAA1704 /// LOC100996395 / RFU, ING1 / Fold change vs veh, ING1 / RFU, TRMT61B / Fold change vs veh, TRMT61B / RFU, FUBP3 / Fold change vs veh, FUBP3 / RFU, TP53 / Fold change vs veh, TP53 / RFU, TNKS2 / Fold change vs veh, TNKS2 / RFU, ZFP14 / Fold change vs veh, ZFP14 / RFU, ACTR2 / Fold change vs veh, ACTR2 / RFU, PPP3R1 / Fold change vs veh, PPP3R1 / RFU, PIK3R1 / Fold change vs veh, PIK3R1 / RFU, HNRNPA1 / Fold change vs veh, HNRNPA1 / RFU, RNF170 / Fold change vs veh, RNF170 / RFU, ZNF28 / Fold change vs veh, ZNF28 / RFU, RNGTT / Fold change vs veh, RNGTT / RFU, OGT / Fold change vs veh, OGT / RFU, BRD1 / Fold change vs veh, BRD1 / RFU, MARS / Fold change vs veh, MARS / RFU, ZNF655 / Fold change vs veh, ZNF655 / RFU, FAHD1 / Fold change vs veh, FAHD1 / RFU, BDP1 / Fold change vs veh, BDP1 / RFU, LRRCC1 / Fold change vs veh, LRRCC1 / RFU, ARID1A / Fold change vs veh, ARID1A / RFU, ZNF146 / Fold change vs veh, ZNF146 / RFU, ZNF330 / Fold change vs veh, ZNF330 / RFU, GPN3 / Fold change vs veh, GPN3 / RFU, C9orf123 / Fold change vs veh, C9orf123 / RFU, N4BP2L2 / Fold change vs veh, N4BP2L2 / RFU, ARFIP1 / Fold change vs veh, ARFIP1 / RFU, FAM179B / Fold change vs veh, FAM179B / RFU, BCL10 / Fold change vs veh, BCL10 / RFU, UHRF1BP1L / Fold change vs veh, UHRF1BP1L / RFU, BET1 / Fold change vs veh, BET1 / RFU, CNOT2 / Fold change vs veh, CNOT2 / RFU, ZNF268 / Fold change vs veh, ZNF268 / Fold change vs veh, ZNF507 / RFU, DGCR2 / Fold change vs veh, DGCR2 / RFU, WDSUB1 / Fold change vs veh, WDSUB1 / Fold change vs veh, HSP90B1 /// MIR3652 / RFU, ADSS / Fold change vs veh, ADSS / RFU, GK / Fold change vs veh, GK / RFU, ZNF148 / Fold change vs veh, ZNF148 / RFU, TAF9 / Fold change vs veh, TAF9 / RFU, SLC1A5 / Fold change vs veh, SLC1A5 / RFU, SLMO2 / Fold change vs veh, SLMO2 / RFU, ABCC4 / Fold change vs veh, ABCC4 / RFU, LOC101060439 /// RAP1B / Fold change vs veh, LOC101060439 /// RAP1B / RFU, RFX7 / Fold change vs veh, RFX7 / RFU, GTPBP10 / Fold change vs veh, GTPBP10 / RFU, CNEP1R1 / Fold change vs veh, CNEP1R1 / RFU, BIVM-ERCC5 /// ERCC5 / Fold change vs veh, BIVM-ERCC5 /// ERCC5 / RFU, ILF3 / Fold change vs veh, ILF3 / RFU 11762660_at / Fold change /veh 11762660_at / RFU VCAN (11757783_s_at) / Fold change /veh VCAN (11757783_s_at) / RFU DDX43 (11728927_at) / Fold change /veh DDX43 (11728927_at) / RFU KRT8 (11758188_x_at) / Fold change /veh KRT8 (11758188_x_at) / RFU NKD1 (11759106_at) / Fold change /veh NKD1 (11759106_at) / RFU SRD5A1 (11742802_a_at) / Fold change /veh SRD5A1 (11742802_a_at) / RFU TPSAB1 /// TPSB2 (11721975_s_at) / Fold change /veh TPSAB1 /// TPSB2 (11721975_s_at) / RFU GSTM3 (11746129_a_at) / Fold change /veh GSTM3 (11746129_a_at) / RFU IL23R (11737362_x_at) / Fold change /veh IL23R (11737362_x_at) / RFU TMEM51 (11727254_a_at) / Fold change /veh TMEM51 (11727254_a_at) / RFU PIWIL2 (11732686_x_at) / Fold change /veh PIWIL2 (11732686_x_at) / RFU ORM1 (11744905_x_at) / Fold change /veh ORM1 (11744905_x_at) / RFU CCDC152 (11743942_at) / Fold change /veh CCDC152 (11743942_at) / RFU ECM1 (11717891_a_at) / Fold change /veh ECM1 (11717891_a_at) / RFU IL23R (11748794_a_at) / Fold change /veh IL23R (11748794_a_at) / RFU TNFAIP8L3 (11732012_x_at) / Fold change /veh TNFAIP8L3 (11732012_x_at) / RFU MBOAT4 (11741988_at) / Fold change /veh MBOAT4 (11741988_at) / RFU 11764193_at / Fold change /veh 11764193_at / RFU TMEM53 (11763286_at) / Fold change /veh TMEM53 (11763286_at) / RFU MAGEB2 (11727129_at) / Fold change /veh MAGEB2 (11727129_at) / RFU TMEM200A (11744735_a_at) / Fold change /veh TMEM200A (11744735_a_at) / RFU CCDC152 (11751479_a_at) / Fold change /veh CCDC152 (11751479_a_at) / RFU FAM211A (11726209_a_at) / Fold change /veh FAM211A (11726209_a_at) / RFU RGS16 (11746705_a_at) / Fold change /veh RGS16 (11746705_a_at) / RFU VCAN (11755009_s_at) / Fold change /veh VCAN (11755009_s_at) / RFU RHOB (11743442_s_at) / Fold change /veh RHOB (11743442_s_at) / RFU RGS16 (11720943_a_at) / Fold change /veh RGS16 (11720943_a_at) / RFU RGS16 (11720944_at) / Fold change /veh RGS16 (11720944_at) / RFU, VPS4B / Fold change vs veh, VPS4B / RFU, CREB1 / Fold change vs veh, CREB1 / RFU, DNAJC13 / Fold change vs veh, DNAJC13 / RFU, GNAQ / Fold change vs veh, GNAQ / RFU, CDK5R1 / Fold change vs veh, CDK5R1 / RFU, ZRANB3 / Fold change vs veh, ZRANB3 / RFU, CUL4A / Fold change vs veh, CUL4A / RFU, CCNY / Fold change vs veh, CCNY / RFU, UFL1 / Fold change vs veh, UFL1 / RFU, COG3 / Fold change vs veh, COG3 / RFU, DIAPH2 / Fold change vs veh, DIAPH2 / RFU, SKA2 / Fold change vs veh, SKA2 / RFU, AFF3 / Fold change vs veh, AFF3 / RFU, LMF1 / Fold change vs veh, LMF1 / RFU, IPO11 / Fold change vs veh, IPO11 / RFU, DFFB / Fold change vs veh, DFFB / RFU, FOXP1 / Fold change vs veh, FOXP1 / RFU, CARD8 / Fold change vs veh, CARD8 / RFU, STRN3 / Fold change vs veh, STRN3 / RFU, ADK / Fold change vs veh, ADK / RFU, RASSF2 / Fold change vs veh, RASSF2 / RFU, WIPF1 / Fold change vs veh, WIPF1 / RFU, LARP1B / Fold change vs veh, LARP1B / RFU, RASA1 / Fold change vs veh, RASA1 / RFU, RB1 / Fold change vs veh, RB1 / RFU, PPFIA1 / Fold change vs veh, PPFIA1 / RFU, MAT2A / Fold change vs veh, MAT2A / RFU, CCT5 / Fold change vs veh, CCT5 / RFU, WDR92 / Fold change vs veh, WDR92 / RFU, CUX1 / Fold change vs veh, CUX1 / RFU, TTC7A / Fold change vs veh, TTC7A / RFU, TMEM135 / Fold change vs veh, TMEM135 / RFU, DEPTOR / Fold change vs veh, DEPTOR / RFU, CPM / Fold change vs veh, CPM / RFU, DNAJB6 / Fold change vs veh, DNAJB6 / RFU, CACNA2D3 / Fold change vs veh, CACNA2D3 / RFU, DTX4 / Fold change vs veh, DTX4 / RFU, TFCP2 / Fold change vs veh, TFCP2 / RFU, GMCL1 /// GMCL1P1 / Fold change vs veh, GMCL1 /// GMCL1P1 / RFU, AEBP2 / Fold change vs veh, AEBP2 / RFU, SNHG1 /// SNORD22 /// SNORD25 /// SNORD26 /// SNORD27 /// SNORD28 /// SNORD29 /// SNORD31 / Fold change vs veh, SNHG1 /// SNORD22 /// SNORD25 /// SNORD26 /// SNORD27 /// SNORD28 /// SNORD29 /// SNORD31 / Fold change (Aza/veh), C12orf56 (ProbeSet 11735607_a_at) / Fold change (ACY-1035/veh), C12orf56 (ProbeSet 11735607_a_at) / Fold change (Aza/veh), FGFR1OP (ProbeSet 11751329_s_at) / Fold change (ACY-1035/veh), FGFR1OP (ProbeSet 11751329_s_at) / Fold change (Aza/veh), VPS36 (ProbeSet 11739960_a_at) / Fold change (ACY-1035/veh), VPS36 (ProbeSet 11739960_a_at) / RFU SYPL1 (11715823_x_at) / Fold change /veh SYPL1 (11715823_x_at) / RFU IGFBP7 (11715501_s_at) / Fold change /veh IGFBP7 (11715501_s_at) / RFU REEP3 (11722064_at) / Fold change /veh REEP3 (11722064_at) / RFU IGLL1 (11728026_x_at) / Fold change /veh IGLL1 (11728026_x_at): dose or concentration left out as unconfirmed
Settings: ProbeSet 11743567_s_at; LIST B

## Nc1ncn([C@@H]2O[C@H](CO)[C@@H](O)[C@H]2O)c(=O)n1 [azacitidine]
  RFU, ACBD3: 255.44 RFU
